Laboratory results reported in patent publication US10576064B2, “Spiro[3H-indole-3,2′-pyrrolidin]-2(1H)-one compounds and derivatives as MDM2-P53 inhibitors” (Boehringer Ingelheim International GmbH, priority 2014, dated 2020).

Target: p53-MDM2 interaction (GST-MDM2 protein aa 23-117 / biotinylated p53 wt peptide) (Homo sapiens (Human), UniProt Q00987)
Test: MDM2-p53 Inhibition AlphaScreen
Type: biochemical
Conditions: 20 nM GST-MDM2 (aa 23-117), 20 nM biotinylated p53 wt peptide
Source text: MDM2-p53 Inhibition AlphaScreen

## O=C(O)c1ccc(N2CC[C@H]3[C@@H](C2=O)[C@H](c2cccc(Cl)c2)[C@]2(C(=O)Nc4cc(Cl)ccc42)N3CC2CC2)cc1 [Compound I-177]
  IC50: 16 nM

## O=C1NCC[C@H]2[C@@H]1[C@H](c1cccc(Cl)c1F)[C@]1(C(=O)Nc3cc(Br)ccc31)N2CC1CC1 [Compound I-21]
  IC50: 64 nM

## O=C(CO)c1ccc(N2C[C@H]3[C@@H](C2=O)[C@H](c2cccc(Cl)c2F)[C@]2(C(=O)Nc4cc(Cl)ccc42)N3CC2CC2)cc1 [Compound I-262]
  IC50: 21 nM

## CCOc1cccc(CN2[C@H]3CCN(c4ccc(C(=O)O)cc4)C(=O)[C@H]3[C@H](c3cccc(Cl)c3F)[C@]23C(=O)Nc2cc(Cl)ccc23)c1 [Compound I-185]
  IC50: 3 nM

## O=C(O)c1ccc(N2C[C@H]3[C@@H](C2=O)[C@H](c2cccc(Cl)c2F)[C@]2(C(=O)Nc4cc(Cl)ccc42)N3CC2CC2)cc1C(F)(F)F [Compound I-256]
  IC50: 27 nM

## COC(=O)c1ccc(N2C[C@H]3[C@@H](C2=O)[C@H](c2cccc(Cl)c2F)[C@]2(C(=O)Nc4cc(Cl)ccc42)N3CC2CC2)cc1 [Compound I-123]
  IC50: 38 nM

## O=C(O)c1ccc(N2C[C@H]3[C@@H](C2=O)[C@H](c2cccc(Cl)c2F)[C@]2(C(=O)Nc4cc(Cl)ccc42)N3CC2CC(F)(F)C2)cc1 [Compound I-230]
  IC50: 5 nM

## O=C(O)c1ccc(N2CC[C@@H]3[C@H](C2=O)[C@@H](c2cccc(Cl)c2F)[C@@]2(C(=O)Nc4cc(Cl)ccc42)N3CC2CC2)cc1 [Compound I-172]
  IC50: 302 nM

## CS(=O)(=O)Nc1ccc(N2C[C@H]3[C@@H](C2=O)[C@H](c2cccc(Cl)c2F)[C@]2(C(=O)Nc4cc(Cl)ccc42)N3CC2CC2)cc1F [Compound I-302]
  IC50: 37 nM

## CN(O)C(=O)c1ccc(N2CC[C@H]3[C@@H](C2=O)[C@H](c2cccc(Cl)c2F)[C@]2(C(=O)Nc4cc(Cl)ccc42)N3CC2CC2)cc1 [Compound I-276]
  IC50: 46 nM

## COCCN1[C@H]2CN(c3ccc(C(=O)O)cc3)C(=O)[C@H]2[C@H](c2cccc(Cl)c2F)[C@]12C(=O)Nc1cc(Cl)ccc12 [Compound I-224]
  IC50: 17 nM

## CS(=O)(=O)Nc1ccc(N2CC[C@H]3[C@@H](C2=O)[C@H](c2cccc(Cl)c2F)[C@]2(C(=O)Nc4cc(Cl)ccc42)N3CC2CC2)cc1 [Compound I-300]
  IC50: 98 nM

## CCOc1cccc(CN2[C@H]3CN(Cc4ccc(C(=O)O)cc4)C(=O)[C@H]3[C@H](c3cccc(Cl)c3F)[C@]23C(=O)Nc2cc(Cl)ccc23)c1 [Compound I-246]
  IC50: 17 nM

## O=C(O)c1ccc(N2C[C@H]3[C@@H](C2=O)[C@H](c2cccc(Cl)c2F)[C@]2(C(=O)Nc4cc(Cl)ccc42)N3CCC(F)(F)F)cc1 [Compound I-226]
  IC50: 12 nM

## CC1CC1CN1[C@H]2CCN(c3ccc(S(C)(=O)=O)cc3)C(=O)[C@H]2[C@H](c2cccc(Cl)c2F)[C@]12C(=O)Nc1cc(Cl)ccc12 (stereo partly drawn) [Compound I-78]
  IC50: 120 nM

## O=C1NCC[C@H]2[C@@H]1[C@H](c1cccc(Cl)c1F)[C@]1(C(=O)Nc3cc(Cl)ccc31)N2CC1CCC1 [Compound I-19]
  IC50: 240 nM

## CC(C)(C)CN1[C@H]2CCNC(=O)[C@H]2[C@H](c2cccc(Cl)c2F)[C@]12C(=O)Nc1cc(Cl)ccc12 [Compound I-15]
  IC50: 152 nM

## CC(C)(C)CN1[C@H]2CCN(Cc3ccc(C(=O)O)cc3)C(=O)[C@H]2[C@H](c2cccc(Cl)c2F)[C@]12C(=O)Nc1cc(Cl)ccc12 [Compound I-210]
  IC50: 158 nM

## CNC(=O)c1ccc(N2CC[C@H]3[C@@H](C2=O)[C@H](c2cccc(Cl)c2F)[C@]2(C(=O)Nc4cc(Cl)ccc42)N3CC2CC2)cc1 [Compound I-270]
  IC50: 27 nM

## COc1cc(N2C[C@H]3[C@@H](C2=O)[C@H](c2cccc(Cl)c2F)[C@]2(C(=O)Nc4cc(Cl)ccc42)N3CC2CC2)ccc1C(=O)O [Compound I-258]
  IC50: 4 nM

## O=C(O)c1ccc(N2C[C@H]3[C@@H](C2=O)[C@H](c2cccc(Br)c2F)[C@]2(C(=O)Nc4cc(Cl)ccc42)N3CC2CC2)cc1 [Compound I-252]
  IC50: 9 nM

## O=C(O)c1ccc(N2C[C@H]3[C@@H](C2=O)[C@H](c2cccc(Cl)c2F)[C@]2(C(=O)Nc4cc(Cl)ccc42)N3CC2CC2)cc1 [Compound I-216]
  IC50: 6 nM

## CC(C)(C)CN1[C@H]2CN(c3ccc(C(=O)O)cc3)C(=O)[C@H]2[C@H](c2cccc(Cl)c2F)[C@]12C(=O)Nc1cc(Cl)ccc12 [Compound I-228]
  IC50: 11 nM

## COc1cccc(CN2[C@H]3CCN(Cc4ccc(C(=O)O)cc4)C(=O)[C@H]3[C@H](c3cccc(Cl)c3F)[C@]23C(=O)Nc2cc(Cl)ccc23)c1 [Compound I-214]
  IC50: 34 nM

## CN(C)C(=O)c1ccc(N2CC[C@H]3[C@@H](C2=O)[C@H](c2cccc(Cl)c2F)[C@]2(C(=O)Nc4cc(Cl)ccc42)N3CC2CC2)cc1 [Compound I-272]
  IC50: 25 nM

## Cc1cc(N2CC[C@H]3[C@@H](C2=O)[C@H](c2cccc(Cl)c2F)[C@]2(C(=O)Nc4cc(Cl)ccc42)N3CC2CC2)cc(C)c1C(=O)O [Compound I-206]
  IC50: 46 nM

## Cc1cc(N2C[C@H]3[C@@H](C2=O)[C@H](c2cccc(Cl)c2F)[C@]2(C(=O)Nc4cc(Cl)ccc42)N3CC2CC2)ccc1C(=O)O [Compound I-261]
  IC50: 5 nM

## CC(C)(C)CN1[C@H]2CCN(c3ccc(S(C)(=O)=O)cc3)C(=O)[C@H]2[C@H](c2cccc(Cl)c2F)[C@]12C(=O)Nc1cc(Cl)ccc12 [Compound I-74]
  IC50: 342 nM

## COc1cc(C(=O)O)ccc1N1CC[C@H]2[C@@H](C1=O)[C@H](c1cccc(Cl)c1)[C@]1(C(=O)Nc3cc(Cl)ccc31)N2CC1CC1 [Compound I-181]
  IC50: 92 nM

## CN(C)C(=O)c1ccc(N2C[C@H]3[C@@H](C2=O)[C@H](c2cccc(Cl)c2F)[C@]2(C(=O)Nc4cc(Cl)ccc42)N3CC2CC2)cc1 [Compound I-286]
  IC50: 10 nM

## O=C(O)c1ccc(N2CC[C@H]3[C@@H](C2=O)[C@H](c2cccc(Cl)c2F)[C@]2(C(=O)Nc4cc(Cl)c(F)cc42)N3CC2CC2)cc1 [Compound I-173]
  IC50: 29 nM

## CC(C)(C)CN1[C@H]2CCN(c3ccc(C(=O)O)cc3)C(=O)[C@H]2[C@H](c2cccc(Cl)c2F)[C@]12C(=O)Nc1cc(Cl)ccc12 [Compound I-202]
  IC50: 48 nM

## COc1cc(C(=O)O)ccc1N1CC[C@H]2[C@@H](C1=O)[C@H](c1cccc(Cl)c1F)[C@]1(C(=O)Nc3cc(Cl)ccc31)N2CC1CC1 [Compound I-179]
  IC50: 71 nM

## O=C(O)c1ccc(N2C[C@H]3[C@@H](C2=O)[C@H](c2ccnc(Cl)c2F)[C@]2(C(=O)Nc4cc(Cl)ccc42)N3CC2CC2)cc1 [Compound I-244]
  IC50: 4 nM

## CCOC(=O)CNc1ccc(N2CC[C@H]3[C@@H](C2=O)[C@H](c2cccc(Cl)c2F)[C@]2(C(=O)Nc4cc(Cl)ccc42)N3CC2CC2)cc1 [Compound I-304]
  IC50: 192 nM

## O=C(O)c1ccc(N2C[C@@H]3[C@H](C2=O)[C@@H](c2cccc(Cl)c2F)[C@@]2(C(=O)Nc4cc(Cl)ccc42)N3CC2CCC2)cc1 [Compound I-223]
  IC50: 271 nM

## COC(=O)c1ccc(N2CC[C@H]3[C@@H](C2=O)[C@H](c2cccc(Cl)c2F)[C@]2(C(=O)Nc4cc(Cl)ccc42)N3CC2CC2C)c(OC)c1 (stereo partly drawn) [Compound I-82]
  IC50: 1020 nM

## O=C1NCC[C@H]2[C@@H]1[C@H](c1cccc(Cl)c1F)[C@]1(C(=O)Nc3cc(I)ccc31)N2CC1CC1 [Compound I-25]
  IC50: 324 nM

## O=C(O)c1ccc(N2C[C@H]3[C@@H](C2=O)[C@H](c2cccc(Br)c2F)[C@]2(C(=O)Nc4cc(Cl)ccc42)N3CC2CC2)cc1F [Compound I-254]
  IC50: 9 nM
